The source made the active and inactive calls. No cut-off for these calls is given here.
Key:
Type in all cases: cell-based
[1] = biological target: Histone-lysine N-methyltransferase EZH2 (Homo sapiens) (UniProt Q15910); assay: Inhibition of EZH2 in human EBV-positive Akata cells assessed as effect on lytic gene EBNA2 at 1 uM for 3 days followed by addition of ant-IgG for lytic induction for 2 days by qRT-PCR analysis; settings: time 5.0 day
[2] = biological target: Histone-lysine N-methyltransferase EZH2 (Homo sapiens) (UniProt Q15910); assay: Inhibition of EZH2 (unknown origin) in Lymphoblastoid cells assessed as effect on lytic gene gp350/200 at 1 uM for 3 days followed by addition of TPA, A23187 and sodium butyrate for lytic induction for 2 days by qRT-PCR analysis; settings: Lymphoblastoid cell, time 5.0 day
[3] = biological target: Histone-lysine N-methyltransferase EZH2 (Homo sapiens) (UniProt Q15910); assay: Inhibition of EZH2 in human EBV-positive Akata cells assessed as effect on lytic gene BZLF1 at 1 uM for 3 days followed by addition of ant-IgG for lytic induction for 2 days by qRT-PCR analysis; settings: time 5.0 day
[4] = biological target: Histone-lysine N-methyltransferase EZH2 (Homo sapiens) (UniProt Q15910); assay: Inhibition of EZH2 in human EBV-positive Akata cells assessed as effect on lytic gene gp350/200 at 1 uM after 3 days by qRT-PCR analysis; settings: time 3.0 day
[5] = biological target: Histone-lysine N-methyltransferase EZH2 (Homo sapiens) (UniProt Q15910); assay: Inhibition of EZH2 in human EBV-positive Akata cells assessed as effect on lytic gene EBNA1 at 1 uM after 3 days by qRT-PCR analysis; settings: time 3.0 day
[6] = biological target: Histone-lysine N-methyltransferase EZH2 (Homo sapiens) (UniProt Q15910); assay: Inhibition of EZH2 in human EBV-positive Akata cells assessed as effect on lytic gene BARTs at 1 uM after 3 days by qRT-PCR analysis; settings: time 3.0 day
[7] = biological target: Histone-lysine N-methyltransferase EZH2 (Homo sapiens) (UniProt Q15910); assay: Inhibition of EZH2 (unknown origin) in Lymphoblastoid cells assessed as effect on lytic gene EBNA1 at 1 uM for 3 days followed by addition of TPA, A23187 and sodium butyrate for lytic induction for 2 days by qRT-PCR analysis; settings: Lymphoblastoid cell, time 5.0 day
[8] = biological target: Histone-lysine N-methyltransferase EZH2 (Homo sapiens) (UniProt Q15910); assay: Inhibition of EZH2 in human EBV-positive Akata cells assessed as increase in lytic gene LMP1 at 1 uM for 3 days followed by addition of ant-IgG for lytic induction for 2 days by qRT-PCR analysis relative to control; settings: time 5.0 day
[9] = biological target: Histone-lysine N-methyltransferase EZH2 (Homo sapiens) (UniProt Q15910); assay: Inhibition of EZH2 (unknown origin) in Lymphoblastoid cells assessed as effect on lytic gene EBNA2 at 1 uM for 3 days followed by addition of TPA, A23187 and sodium butyrate for lytic induction for 2 days by qRT-PCR analysis; settings: Lymphoblastoid cell, time 5.0 day
[10] = biological target: Histone-lysine N-methyltransferase EZH2 (Homo sapiens) (UniProt Q15910); assay: Inhibition of EZH2 (unknown origin) in Lymphoblastoid cells assessed as reduction in H3K27me3 levels at 1 uM after 3 days by Western blot analysis; settings: Lymphoblastoid cell, time 3.0 day
[11] = biological target: Histone-lysine N-methyltransferase EZH2 (Homo sapiens) (UniProt Q15910); assay: Inhibition of EZH2 in human EBV-positive Akata cells assessed as effect on lytic gene EBER1 at 1 uM after 3 days by qRT-PCR analysis; settings: time 3.0 day
[12] = biological target: Histone-lysine N-methyltransferase EZH2 (Homo sapiens) (UniProt Q15910); assay: Inhibition of EZH2 in human EBV-positive Akata cells assessed as effect on lytic gene EBNA2 at 1 uM after 3 days by qRT-PCR analysis; settings: time 3.0 day
[13] = biological target: Histone-lysine N-methyltransferase EZH2 (Homo sapiens) (UniProt Q15910); assay: Inhibition of EZH2 in human EBV-positive Akata cells assessed as effect on lytic gene EBER1 at 1 uM for 3 days followed by addition of ant-IgG for lytic induction for 2 days by qRT-PCR analysis; settings: time 5.0 day
[14] = biological target: Histone-lysine N-methyltransferase EZH2 (Homo sapiens) (UniProt Q15910); assay: Inhibition of EZH2 (unknown origin) in Lymphoblastoid cells assessed as effect on lytic gene LMP1 at 1 uM for 3 days followed by addition of TPA, A23187 and sodium butyrate for lytic induction for 2 days by qRT-PCR analysis relative to control; settings: Lymphoblastoid cell, time 5.0 day
[15] = biological target: Histone-lysine N-methyltransferase EZH2 (Homo sapiens) (UniProt Q15910); assay: Inhibition of EZH2 (unknown origin) in Lymphoblastoid cells assessed as effect on lytic gene BARTs at 1 uM for 3 days followed by addition of TPA, A23187 and sodium butyrate for lytic induction for 2 days by qRT-PCR analysis; settings: Lymphoblastoid cell, time 5.0 day
[16] = biological target: Histone-lysine N-methyltransferase EZH2 (Homo sapiens) (UniProt Q15910); assay: Inhibition of EZH2 in human EBV-positive Akata cells assessed as reduction in H3K27me3 levels at 1 uM after 3 days by Western blot analysis; settings: time 3.0 day
[17] = biological target: Histone-lysine N-methyltransferase EZH2 (Homo sapiens) (UniProt Q15910); assay: Inhibition of EZH2 (unknown origin) in Lymphoblastoid cells assessed as effect on lytic gene BZLF1 at 1 uM for 3 days followed by addition of TPA, A23187 and sodium butyrate for lytic induction for 2 days by qRT-PCR analysis; settings: Lymphoblastoid cell, time 5.0 day
[18] = biological target: Histone-lysine N-methyltransferase EZH2 (Homo sapiens) (UniProt Q15910); assay: Inhibition of EZH2 (unknown origin) in Lymphoblastoid cells assessed as reduction in H3K27me3 levels at 1 uM after 3 days by CHIP assay; settings: Lymphoblastoid cell, time 3.0 day
[19] = biological target: Histone-lysine N-methyltransferase EZH2 (Homo sapiens) (UniProt Q15910); assay: Inhibition of EZH2 in human EBV-positive Akata cells assessed as effect on lytic gene EBNA1 at 1 uM for 3 days followed by addition of ant-IgG for lytic induction for 2 days by qRT-PCR analysis; settings: time 5.0 day
[20] = biological target: Histone-lysine N-methyltransferase EZH2 (Homo sapiens) (UniProt Q15910); assay: Inhibition of EZH2 in human EBV-positive Akata cells assessed as reduction in H3K27me3 levels at 1 uM after 3 days by CHIP assay; settings: time 3.0 day
[21] = biological target: Histone-lysine N-methyltransferase EZH2 (Homo sapiens) (UniProt Q15910); assay: Inhibition of EZH2 in human EBV-positive Akata cells assessed as effect on lytic gene BZLF1 at 1 uM after 3 days by qRT-PCR analysis; settings: time 3.0 day
[22] = biological target: Histone-lysine N-methyltransferase EZH2 (Homo sapiens) (UniProt Q15910); assay: Inhibition of EZH2 in human EBV-positive Akata cells assessed as effect on lytic gene BARTs at 1 uM for 3 days followed by addition of ant-IgG for lytic induction for 2 days by qRT-PCR analysis; settings: time 5.0 day
[23] = biological target: Histone-lysine N-methyltransferase EZH2 (Homo sapiens) (UniProt Q15910); assay: Inhibition of EZH2 in human EBV-positive Akata cells assessed as effect on cell viability at 1 uM
[24] = biological target: Histone-lysine N-methyltransferase EZH2 (Homo sapiens) (UniProt Q15910); assay: Inhibition of EZH2 in human EBV-positive Akata cells assessed as effect on lytic gene LMP2 at 1 uM for 3 days followed by addition of ant-IgG for lytic induction for 2 days by qRT-PCR analysis; settings: time 5.0 day
[25] = biological target: Histone-lysine N-methyltransferase EZH2 (Homo sapiens) (UniProt Q15910); assay: Inhibition of EZH2 in human EBV-positive Akata cells assessed as effect on lytic gene LMP2 at 1 uM after 3 days by qRT-PCR analysis; settings: time 3.0 day
[26] = biological target: Histone-lysine N-methyltransferase EZH2 (Homo sapiens) (UniProt Q15910); assay: Inhibition of EZH2 in human EBV-positive Akata cells assessed as increase in lytic gene LMP1 at 1 uM after 3 days by qRT-PCR analysis relative control; settings: time 3.0 day
[27] = biological target: Histone-lysine N-methyltransferase EZH2 (Homo sapiens) (UniProt Q15910); assay: Inhibition of EZH2 (unknown origin) in Lymphoblastoid cells assessed as effect on lytic gene EBER1 at 1 uM for 3 days followed by addition of TPA, A23187 and sodium butyrate for lytic induction for 2 days by qRT-PCR analysis; settings: Lymphoblastoid cell, time 5.0 day
[28] = biological target: Histone-lysine N-methyltransferase EZH2 (Homo sapiens) (UniProt Q15910); assay: Inhibition of EZH2 in human EBV-positive Akata cells assessed as effect on lytic gene gp350/200 at 1 uM for 3 days followed by addition of ant-IgG for lytic induction for 2 days by qRT-PCR analysis; settings: time 5.0 day
[29] = biological target: Histone-lysine N-methyltransferase EZH2 (Homo sapiens) (UniProt Q15910); assay: Inhibition of EZH2 (unknown origin) in Lymphoblastoid cells assessed as effect on lytic gene LMP2 at 1 uM for 3 days followed by addition of TPA, A23187 and sodium butyrate for lytic induction for 2 days by qRT-PCR analysis; settings: Lymphoblastoid cell, time 5.0 day

Histone-lysine N-methyltransferase EZH2 (Homo sapiens), sequence (Q15910 whole entry, looked up): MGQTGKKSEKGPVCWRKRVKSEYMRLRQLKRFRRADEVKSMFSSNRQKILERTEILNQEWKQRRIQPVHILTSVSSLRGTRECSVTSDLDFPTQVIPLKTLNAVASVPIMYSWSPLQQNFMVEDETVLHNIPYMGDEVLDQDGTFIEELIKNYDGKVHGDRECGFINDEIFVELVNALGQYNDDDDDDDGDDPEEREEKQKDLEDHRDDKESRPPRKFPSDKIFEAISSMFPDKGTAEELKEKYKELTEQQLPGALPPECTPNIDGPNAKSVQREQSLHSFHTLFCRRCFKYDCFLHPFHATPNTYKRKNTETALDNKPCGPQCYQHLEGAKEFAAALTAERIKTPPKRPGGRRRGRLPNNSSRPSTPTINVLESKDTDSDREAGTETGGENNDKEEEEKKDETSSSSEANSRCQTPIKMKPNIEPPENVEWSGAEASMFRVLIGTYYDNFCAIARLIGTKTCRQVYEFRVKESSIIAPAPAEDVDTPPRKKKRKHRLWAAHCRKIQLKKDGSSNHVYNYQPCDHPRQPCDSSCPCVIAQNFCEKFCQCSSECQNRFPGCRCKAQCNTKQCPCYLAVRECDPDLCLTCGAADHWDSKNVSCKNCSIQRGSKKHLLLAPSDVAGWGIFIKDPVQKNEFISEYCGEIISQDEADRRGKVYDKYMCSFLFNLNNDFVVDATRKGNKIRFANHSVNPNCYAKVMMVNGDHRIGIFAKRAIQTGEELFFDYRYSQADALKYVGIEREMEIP

inhibition [1]: inactive | inhibition [2]: inactive | inhibition [3]: inactive | inhibition [4]: inactive | inhibition [5]: inactive | inhibition [6]: inactive | inhibition [7]: inactive | fold change (FC) [8]: 6.7 | inhibition [9]: inactive | inhibition [10]: Active | inhibition [11]: inactive | inhibition [12]: inactive | inhibition [13]: inactive | fold change (FC) [14]: 8.3 | inhibition [15]: inactive | inhibition [16]: Active | inhibition [17]: inactive | inhibition [18]: Active | inhibition [19]: inactive | inhibition [20]: Active | inhibition [21]: inactive | inhibition [22]: inactive | inhibition [24]: inactive | inhibition [25]: inactive | fold change (FC) [26]: 2.6 | inhibition [27]: inactive | inhibition [28]: inactive | inhibition [29]: inactive
Structure (SMILES): CCCc1cc(C)[nH]c(=O)c1CNC(=O)c1cc(-c2ccnc(N3CCN(C)CC3)c2)cc2c1cnn2C(C)C
inhibition [23]: inactive
